Results published in patent US8435987B2, “Pyrazolo-pyridinone and pyrazolo-pyrazinone compounds as P38 modulators and methods of use thereof” (Amgen Inc., priority 2007, dated 2013).
pIC50: −log10 of the molar value.

Tests used:
recombinant human p38α = recombinant human p38α (Homo sapiens, UniProt Q16539); assay: Purified and activated recombinant human p38α HTRF assay; type: biochemical; details: 1 nM p38α, 50 μM ATP, 100 nM GST-ATF2-Avitag, read-out: p3a IC550
Method: Purified and Activated Recombinant Human p38α Assay
• Kinase Reaction Buffer: Kinase reaction buffer for p38α HTRF assays consists of 50 mM Tris-pH 7.5, 5 mM MgCl2, 0.1 mg/mL BSA, 100 μM Na3VO4 and 0.5 mM DTT. • HTRF Detection Buffer: HTRF detection buffer contains 100 mM HEPES-pH 7.5, 100 mM NaCl, 0.1% BSA, 0.05% Tween-20, and 10 mM EDTA. • Serial Dilution of Compounds: Compounds were dissolved in 100% DMSO and serially diluted (3 fold, 10 point) in a polypropylene 96-well microtiter plate (drug plate). The final starting concentration of compounds in the p38a enzymatic assays was 1 μM. Columns 6 and 12 (HI controls and LO controls respectively) in the drug plate were reserved as controls and contained only DMSO. • Kinase Reaction: The p38α kinase reactions were carried out in a polypropylene 96-well black round bottom assay plate in total volume of 30 μL kinase reaction buffer. Appropriate concentration of purified and activated enzyme (recombinant human) was mixed with indicated concentration of ATP and 100 nM GST-ATF2-Avitag, in the presence or absence (HI control) of Compound. See table below for actual concentrations. In the absence of substrate, the background was measured as LO control. The reaction was allowed to incubate for 1 hour at RT. • Assay Reagent Concentrations: The final reagent concentrations were 1 nM p38α and 50 μM ATP. […] After 60 minutes incubation at room temperature, the assay plate was read in a Discovery Plate Reader. The wells were excited with coherent 320 nm light and the ratio of delayed ([…] post excitation) emissions at […] (native europium fluorescence) and 665 nm (europium fluorescence transferred to allophycocyanin—an index of substrate phosphorylation) was determined (Park et al, 1999). • Data Analysis: The proportion of substrate phosphorylated in the kinase reaction in the presence of compound compared with that phosphorylated in the presence of DMSO vehicle alone (HI control) was calculated using the formula: % control (POC)=(compound−average LO)/(average HI−average LO)*100. Data (consisting of POC and inhibitor concentration in μM) was fitted to a 4-parameter equation (y=A+((B−A)/(1+((x/C)AD))), where A is the minimum y (POC) value, B is the maximum y (POC), C is the x (compound concentration) at the point of inflection and D is the slope factor, using a Levenburg-Marquardt non-linear regression algorithm.
The inhibition constant (Ki) of the inhibitor was estimated from the IC50 (compound concentration at the point of inflection C) using the Cheng-Prussof equation: Ki=IC50/(1+S/Km), where S is the ATP substrate concentration, and Km is the Michaelis constant for ATP as determined experimentally. All results were expressed as the mean± the standard error of the mean. Data acquisition and non-linear regression algorithms were performed using Activity Base v5.2 and XL-fit software v4.1 respectively. All data was archived using Activity Base v5.2 software.

[1] = tested on: TNF-α secretion by LPS-treated THP1 cells; assay: Lipopolysaccharide-activated THP1 cell TNF production assay; type: cell-based; details: Homo sapiens, THP-1, 3 hours, read-out: IC50 in the THP-1 cellular TNF production assay
Method: Lipopolysaccharide-Activated THP1 Cell TNF Production Assay
THP1 cells were resuspended in fresh THP1 media (RPMI 1640, 10% heat-inactivated FBS, 1×PGS, 1×NEAA, plus 30 μM βME) at a concentration of 1.5×10^6 cells per mL. One hundred microliters of cells per well were plated in a polystyrene 96-well tissue culture plate. 1.5 micrograms per mL of bacterial LPS was prepared in THP1 media and transferred to the first 11 columns of a 96-well polypropylene plate. Column 12 contained only THP1 media for the LO control. Compounds were dissolved in 100% DMSO and serially diluted 3 fold in a polypropylene 96-well microtiter plate (drug plate). Columns 6 and 12 were reserved as controls (HI controls and LO controls respectively) and contained only DMSO. 10 μL of LPS followed by one microliter of inhibitor compound from the drug plate was transferred to the cell plate. The treated cells were induced to synthesize and secrete TNF-α in a 37° C. humidified incubator with 5% CO2 for 3 hours. Fifty microliters of conditioned media was transferred to a 96-well MULTI-ARRAY™ 96-well small spot plate—custom coated with MAB610 containing 100 μL of 2× Read Buffer P supplemented with 0.34 nM AF210NA polyclonal Ab labeled with ruthenium (MSD-Sulfo-TAG™—NHS ester). After an overnight incubation at room temperature with shaking, the reaction was read on the Sector Imager™ 6000. […] The amount of secreted TNF-α in the presence of AMG compounds compared with that in the presence of DMSO vehicle alone (HI control) was calculated using the formula: % control (POC)=(cpd−average LO)/(average HI−averageLO)*100. Data (consisting of POC and inhibitor concentration in μM) was fitted to a 4-parameter equation (y=A+((B−A)/(1+((x/C)^D))), where A is the minimum y (POC) value, B is the maximum y (POC), C is the x (cpd concentration) at the point of inflection and D is the slope factor) using a Levenburg-Marquardt non-linear regression algorithm.

Chain of recombinant human p38α (Q16539 whole entry): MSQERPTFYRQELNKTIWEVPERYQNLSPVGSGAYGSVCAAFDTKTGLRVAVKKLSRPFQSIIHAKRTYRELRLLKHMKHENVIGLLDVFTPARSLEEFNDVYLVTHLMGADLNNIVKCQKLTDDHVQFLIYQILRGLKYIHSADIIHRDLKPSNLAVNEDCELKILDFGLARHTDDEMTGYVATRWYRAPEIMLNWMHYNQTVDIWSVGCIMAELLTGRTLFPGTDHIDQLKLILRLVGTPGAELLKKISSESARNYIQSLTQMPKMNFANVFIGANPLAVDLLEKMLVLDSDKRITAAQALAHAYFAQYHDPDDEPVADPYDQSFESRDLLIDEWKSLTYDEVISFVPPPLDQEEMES

Row | pIC50 (recombinant human p38α) | pIC50 [1] | SMILES
1 | 8.09 | ≥ 7.00 | Cc1ccc2c(NC3CC3)noc2c1-c1cc2cnn(-c3c(F)cccc3F)c2n(C)c1=O [Example 1, 5-(3-(cyclopropylamino)-6-methylbenzo[d]isoxazol-7-yl)-1-(2,6-difluorophenyl)-7-methyl-1H-pyrazolo[3,4-b]pyridin-6(7H)-one]
2 | 8.17 | ≥ 7.00 | CNc1noc2c(-c3cc4cnn(-c5c(F)cccc5F)c4n(C)c3=O)c(C)ccc12 [Example 5, 1-(2,6-difluorophenyl)-7-methyl-5-(6-methyl-3-(methylamino)-1,2-benzisoxazol-7-yl)-1,7-dihydro-6H-pyrazolo[3,4-b]pyridin-6-one]
